Source: ChEMBL document CHEMBL4219213, “The design, synthesis and structure-activity relationships associated with C28 amine-based betulinic acid derivatives as inhibitors of HIV-1 maturation” (Bioorg Med Chem Lett, 2018)

Assays:
[1] = in vivo; conditions: Sprague-Dawley, rat, po, 5 mg/kg
[2] = cells; conditions: Human immunodeficiency virus 1, subtype B NL4-3, MT2
[3] = in vitro; conditions: mouse, liver microsomes
Description: Half life in mouse liver microsomes at 0.5 uM in presence of NADPH by LC-MS/MS method

[4] = cells; conditions: Human immunodeficiency virus 1, subtype B NL4-3, MT2; remark: listed apart in the source
[5] = in vivo; conditions: Sprague-Dawley, rat, plasma, po, 5 mg/kg
Description: Plasma concentration in Sprague-Dawley rat at 5 mg/kg, po via gavage after 24 hrs by LC-MS/MS analysis

[6] = in vitro; conditions: human, liver microsomes
Description: Half life in human liver microsomes at 0.5 uM in presence of NADPH by LC-MS/MS method

[7] = in vitro; conditions: rat, liver microsomes
Description: Half life in rat liver microsomes at 0.5 uM in presence of NADPH by LC-MS/MS method

[8] = in vitro; conditions: human, MT2 cells
Description: Cytotoxicity against human MT2 cells

[9] = in vivo; conditions: Sprague-Dawley, rat, po, 5 mg/kg; remark: listed apart in the source
[10] = system: Rattus norvegicus; test: Toxicity in Sprague-Dawley rat at 5 to 124 mg/kg, po via gavage up to 24 hrs by LC-MS/MS analysis; type: organism-based; conditions: in vivo
[11] = Plasma concentration in Sprague-Dawley rat at 124 mg/kg, po via gavage after 24 hrs by LC-MS/MS analysis; type: ADME, organism-based
[12] = Oral bioavailability in Sprague-Dawley rat at 35 mg/kg via gavage up to 24 hrs by LC-MS/MS analysis; type: ADME, organism-based; conditions: in vivo
[13] = Cmax in Sprague-Dawley rat at 35 mg/kg, po via gavage by LC-MS/MS analysis; type: ADME, organism-based; parameters: dose 35 mg/kg, route oral; conditions: in vivo
[14] = system: Rattus norvegicus; test: Extrapolated AUC in Sprague-Dawley rat at 11.8 mg/kg, po via gavage up to 24 hrs by LC-MS/MS analysis; type: ADME, organism-based; conditions: in vivo
[15] = Dose normalized plasma concentration in Sprague-Dawley rat at 124 mg/kg, po via gavage after 24 hrs by LC-MS/MS analysis; type: ADME, organism-based; conditions: in vivo
[16] = Dose normalized plasma concentration in Sprague-Dawley rat at 11.8 mg/kg, po via gavage after 24 hrs by LC-MS/MS analysis; type: ADME, organism-based; conditions: in vivo
[17] = Tmax in Sprague-Dawley rat at 5 mg/kg, po via gavage by LC-MS/MS analysis; type: ADME, organism-based; conditions: in vivo
[18] = system: Rattus norvegicus; test: Dose normalized AUC in Sprague-Dawley rat at 35 mg/kg, po via gavage up to 24 hrs by LC-MS/MS analysis; type: ADME, organism-based; conditions: in vivo
[19] = system: Rattus norvegicus; test: Extrapolated AUC in Sprague-Dawley rat at 35 mg/kg, po via gavage up to 24 hrs by LC-MS/MS analysis; type: ADME, organism-based; conditions: in vivo
[20] = Total AUC in Sprague-Dawley rat at 124 mg/kg, po via gavage up to 24 hrs by LC-MS/MS analysis; type: ADME, organism-based; parameters: dose 124 mg/kg, time AUCmax, route oral; conditions: in vivo
[21] = Total AUC in Sprague-Dawley rat at 11.8 mg/kg, po via gavage up to 24 hrs by LC-MS/MS analysis; type: ADME, organism-based; parameters: dose 11.8 mg/kg, time AUCmax, route oral; conditions: in vivo
[22] = AUClast in Sprague-Dawley rat at 11.8 mg/kg, po via gavage up to 24 hrs by LC-MS/MS analysis; type: ADME, organism-based; parameters: dose 11.8 mg/kg, time < 24 hr, route oral; conditions: in vivo
[23] = system: Rattus norvegicus; test: Extrapolated AUC in Sprague-Dawley rat at 124 mg/kg, po via gavage up to 24 hrs by LC-MS/MS analysis; type: ADME, organism-based; conditions: in vivo
[24] = Tmax in Sprague-Dawley rat at 11.8 mg/kg, po via gavage by LC-MS/MS analysis; type: ADME, organism-based; conditions: in vivo
[25] = Cmax in Sprague-Dawley rat at 124 mg/kg, po via gavage by LC-MS/MS analysis; type: ADME, organism-based; parameters: dose 124 mg/kg, route oral; conditions: in vivo
[26] = Dose normalized plasma concentration in Sprague-Dawley rat at 5 mg/kg, po via gavage after 24 hrs by LC-MS/MS analysis; type: ADME, organism-based; conditions: in vivo
[27] = Oral bioavailability in Sprague-Dawley rat at 124 mg/kg via gavage up to 24 hrs by LC-MS/MS analysis; type: ADME, organism-based; conditions: in vivo
[28] = system: Rattus norvegicus; test: Extrapolated AUC in Sprague-Dawley rat at 5 mg/kg, po via gavage up to 24 hrs by LC-MS/MS analysis; type: ADME, organism-based; conditions: in vivo
[29] = system: Rattus norvegicus; test: Dose normalized AUC in Sprague-Dawley rat at 11.8 mg/kg, po via gavage up to 24 hrs by LC-MS/MS analysis; type: ADME, organism-based; conditions: in vivo
[30] = Total AUC in Sprague-Dawley rat at 5 mg/kg, po via gavage up to 24 hrs by LC-MS/MS analysis; type: ADME, organism-based; parameters: dose 5 mg/kg, time AUCmax, route oral; conditions: in vivo
[31] = Dose normalized plasma concentration in Sprague-Dawley rat at 35 mg/kg, po via gavage after 24 hrs by LC-MS/MS analysis; type: ADME, organism-based; conditions: in vivo
[32] = Plasma concentration in Sprague-Dawley rat at 11.8 mg/kg, po via gavage after 24 hrs by LC-MS/MS analysis; type: ADME, organism-based
[33] = Oral bioavailability in Sprague-Dawley rat at 5 mg/kg via gavage up to 24 hrs by LC-MS/MS analysis; type: ADME, organism-based; conditions: in vivo
[34] = Tmax in Sprague-Dawley rat at 35 mg/kg, po via gavage by LC-MS/MS analysis; type: ADME, organism-based; conditions: in vivo
[35] = system: Rattus norvegicus; test: Dose normalized AUC in Sprague-Dawley rat at 124 mg/kg, po via gavage up to 24 hrs by LC-MS/MS analysis; type: ADME, organism-based; conditions: in vivo
[36] = Oral bioavailability in Sprague-Dawley rat at 11.8 mg/kg via gavage up to 24 hrs by LC-MS/MS analysis; type: ADME, organism-based; conditions: in vivo
[37] = system: Rattus norvegicus; test: Dose normalized AUC in Sprague-Dawley rat at 5 mg/kg, po via gavage up to 24 hrs by LC-MS/MS analysis; type: ADME, organism-based; conditions: in vivo
[38] = AUClast in Sprague-Dawley rat at 35 mg/kg, po via gavage up to 24 hrs by LC-MS/MS analysis; type: ADME, organism-based; parameters: time < 24 hr, dose 35 mg/kg, route oral; conditions: in vivo
[39] = Total AUC in Sprague-Dawley rat at 35 mg/kg, po via gavage up to 24 hrs by LC-MS/MS analysis; type: ADME, organism-based; parameters: dose 35 mg/kg, time AUCmax, route oral; conditions: in vivo
[40] = AUClast in Sprague-Dawley rat at 124 mg/kg, po via gavage up to 24 hrs by LC-MS/MS analysis; type: ADME, organism-based; parameters: time < 24 hr, dose 124 mg/kg, route oral; conditions: in vivo
[41] = Cmax in Sprague-Dawley rat at 5 mg/kg, po via gavage by LC-MS/MS analysis; type: ADME, organism-based; parameters: dose 5 mg/kg, route oral; conditions: in vivo
[42] = Plasma concentration in Sprague-Dawley rat at 35 mg/kg, po via gavage after 24 hrs by LC-MS/MS analysis; type: ADME, organism-based
[43] = AUClast in Sprague-Dawley rat at 5 mg/kg, po via gavage up to 24 hrs by LC-MS/MS analysis; type: ADME, organism-based; parameters: time < 24 hr, dose 5 mg/kg, route oral; conditions: in vivo
[44] = Cmax in Sprague-Dawley rat at 11.8 mg/kg, po via gavage by LC-MS/MS analysis; type: ADME, organism-based; parameters: dose 11.8 mg/kg, route oral; conditions: in vivo
[45] = Tmax in Sprague-Dawley rat at 124 mg/kg, po via gavage by LC-MS/MS analysis; type: ADME, organism-based; conditions: in vivo
[46] = Dissociation constant, pKa of the compound; type: physicochemical

C=C(C)[C@@H]1CC[C@]2(C(=O)NCCN(C)C)CC[C@]3(C)[C@H](CC[C@@H]4[C@@]5(C)CC=C(c6ccc(C(=O)O)cc6)C(C)(C)[C@@H]5CC[C@]43C)[C@@H]12
AUC(0-t) at 24 h [1]: 3.81 µM·h | EC50 [2]: 201 nM | half-life at 0.5 µM [3]: > 2 h | IC50 [4]: 31 nM | concentration at 24 h [5]: 27 nM | half-life at 0.5 µM [6]: > 2 h | half-life at 0.5 µM [7]: > 2 h

C=C(C)[C@@H]1CC[C@]2(CNCCCN3CCS(=O)(=O)CC3)CC[C@]3(C)[C@H](CC[C@@H]4[C@@]5(C)CC=C(c6ccc(C(=O)O)cc6)C(C)(C)[C@@H]5CC[C@]43C)[C@@H]12
AUC(0-t) at 24 h [1]: 2.81 µM·h | EC50 [2]: 20 nM | CC50 [8]: 3500 nM | AUC(0-t) at 6 h [9]: 1.71 µM·h | Activity [10]: Non-Toxic

C=C(C)[C@@H]1CC[C@]2(CNCCCN3CCS(=O)(=O)CC3)CC[C@]3(C)[C@H](CC[C@@H]4[C@@]5(C)CC=C(c6ccc(C(=O)O)cc6)C(C)(C)[C@@H]5CC[C@]43C)[C@@H]12.Cl
concentration at 24 h [11]: 635 nM | bioavailability [12]: 7% | Cmax [13]: 451 nM | %AUCextra [14]: 2% | Cp/dose [15]: 5.1 nM | Cp/dose [16]: 7.7 nM | Tmax [17]: 6.7 h | AUC/dose [18]: 378 µM·h | %AUCextra [19]: 14% | AUC at 24 h [20]: 29.1 µM·h | AUC at 24 h [21]: 5.44 µM·h | AUC(0-t) at 24 h [22]: 5.31 µM·h | %AUCextra [23]: 17% | Tmax [24]: 4.7 h | Cmax [25]: 697 nM | Cp/dose [26]: 6.8 nM | bioavailability [27]: 4% | %AUCextra [28]: 8% | concentration at 24 h [5]: 34 nM | AUC/dose [29]: 461 µM·h | AUC at 24 h [30]: 3.25 µM·h | Cp/dose [31]: 6.7 nM | concentration at 24 h [32]: 91 nM | bioavailability [33]: 12% | Tmax [34]: 5.3 h | AUC/dose [35]: 235 µM·h | bioavailability [36]: 8% | AUC/dose [37]: 650 µM·h | AUC(0-t) at 24 h [38]: 11.4 µM·h | AUC at 24 h [39]: 13.2 µM·h | AUC(0-t) at 24 h [40]: 23.2 µM·h | Cmax [41]: 232 nM | concentration at 24 h [42]: 234 nM | AUC(0-t) at 24 h [43]: 2.99 µM·h | Cmax [44]: 285 nM | Tmax [45]: 17.3 h

C=C(C)[C@@H]1CC[C@]2(CNCCCN3CCOCC3)CC[C@]3(C)[C@H](CC[C@@H]4[C@@]5(C)CC=C(c6ccc(C(=O)O)cc6)C(C)(C)[C@@H]5CC[C@]43C)[C@@H]12
CC50 [8]: 2200 nM | AUC(0-t) at 6 h [9]: 0.045 µM·h | IC50 [4]: 28 nM | pKa [46]: 8.2

C=C(C)[C@@H]1CC[C@]2(CNCCN3CCC(F)(F)CC3)CC[C@]3(C)[C@H](CC[C@@H]4[C@@]5(C)CC=C(c6ccc(C(=O)O)cc6)C(C)(C)[C@@H]5CC[C@]43C)[C@@H]12
half-life at 0.5 µM [3]: > 2 h | CC50 [8]: 8500 nM | IC50 [4]: 57 nM | half-life at 0.5 µM [6]: > 2 h | pKa [46]: 8.6 | half-life at 0.5 µM [7]: > 2 h
